Reference: article PMC11911254 (Pharmacological Reports, 2025)

Legend:
[1] = Concentration of paracetamol and its metabolites in plasma, CSF and brain cortex by LC-MS/MS; conditions: for concentration at 30 min: Sprague Dawley, rat; for Concentration in plasma / Concentration in brain: individual values if <3 samples
Description: Drug injection protocol is illustrated in Fig. 1.
Male and female postnatal P4 pups and 7–8 week-old non-pregnant females were used. […] In combination therapy experiments, this dose was accompanied by one of the 7 other drugs (Table 1). For all experiments, animals were terminally anesthetized 30 min after the drug injection using inhaled isoflurane (IsoFlo 100% w/w, Abbott Laboratories), and blood, CSF, and brain samples were collected. Blood was collected directly from the right cardiac ventricle, CSF from the cisterna magna, and cortical brain samples from the frontal/parietal lobes dorsal to the lateral ventricles as described previously.
Pregnant E19 dams were anesthetized with ip urethane injection (25% w/v urethane, Sigma, 1 ml/100 g body weight) and placed on a 39 °C heating pad in the supine position. An endotracheal catheter was inserted to maintain a clear airway. Catheters were inserted into the femoral vein and artery for iv drug administration and arterial blood sampling respectively. The cannula was flushed with 0.5 ml of heparinized saline (Hospira Inc, 5,000 units/ml) after drug administration and following each arterial blood sample. Following drug administration to the dams, fetuses were exteriorized and serially collected starting at 30 min post-maternal injection. […] At collection, the viability of each fetus was assessed (presence of a heartbeat, the colour of the umbilical vessels) and blood, CSF, and brain samples were taken along with a time-matched maternal blood sample from the femoral artery. At the end of the experiment, a final maternal blood sample was taken directly from the left cardiac ventricle, and CSF and brain samples were collected.
This method has been described previously for valproate, lamotrigine, and olanzapine and was applied in the present study. Simultaneous quantification was performed for all compounds in plasma, brain, and CSF samples following the addition of respective stable isotope-labeled internal standards.
Linear response range was determined in untreated control rat plasma for each compound at 0.1, 1, 10, 50, 100, 200, 400, and 800 µg/ml.

[2] = cited from earlier work
[3] = design: method as in PMID 7288602; conditions: rats; single dose of 15 mg/kg; cited from earlier work
[4] = non-pregnant adult rats, 30 min after ip paracetamol 15 mg/kg + lamotrigine 6 mg/kg (PARA+LTG, n=3), median (IQR)

Which concentration at 30 min ([1]; both, brain cortex, intraperitoneal, Concentration in brain, P4 rats, 30 min after ip paracetamol 15 mg/kg + valproate 30 mg/kg (PARA+VPA, n=4), median (IQR) or individual values) does the source give for `CC(=O)Nc1ccc(O)cc1` [Paracetamol, reference compound] here?
The concentration at 30 min was 5300 ng/mL.

And the concentration at 30 min ([1]; both, brain, CSF, 15 mg/kg, brain and CSF concentrations, monotherapy 15 mg/kg, 30 min, all ages (E19, P4, adult))?
Its concentration at 30 min is 5000 to 10000 ng/mL.

And the concentration at 30 min ([1]; both, plasma, intraperitoneal, 15 mg/kg, Concentration in plasma, P4 rats, 30 min after ip paracetamol 15 mg/kg monotherapy (PARA, n=4), median (IQR))?
The concentration at 30 min was 5600 ng/mL.

And the concentration at 30 min ([1]; both, plasma, intraperitoneal, Concentration in plasma, P4 rats, 30 min after ip paracetamol 15 mg/kg + cimetidine 11 mg/kg (PARA+CIM, n=4), median (IQR))?
The concentration at 30 min was 10600 ng/mL.

What about the concentration at 30 min ([1]; both, plasma, intraperitoneal, Concentration in plasma, P4 rats, 30 min after ip paracetamol 15 mg/kg + digoxin 0.03 mg/kg (PARA+DIG, n=4), median (IQR)) of the same compound?
Its concentration at 30 min is 8200 ng/mL.

What about the concentration at 30 min ([1]; both, plasma, intraperitoneal, Concentration in plasma, P4 rats, 30 min after ip paracetamol 15 mg/kg + fluvoxamine 1.5 mg/kg (PARA+FLX, n=4), median (IQR)) of the same compound?
Its concentration at 30 min is 6500 ng/mL.

And the concentration at 30 min ([1]; both, plasma, intraperitoneal, Concentration in plasma, P4 rats, 30 min after ip paracetamol 15 mg/kg + lamotrigine 6 mg/kg (PARA+LTG, n=5), median (IQR))?
Its concentration at 30 min is 7200 ng/mL.

What about the concentration at 30 min ([1]; both, plasma, intraperitoneal, Concentration in plasma, P4 rats, 30 min after ip paracetamol 15 mg/kg + lithium 3.2 mg/kg (PARA+Li, n=4), median (IQR)) of the same compound?
The concentration at 30 min was 4300 ng/mL.

And the concentration at 30 min ([1]; both, plasma, intraperitoneal, Concentration in plasma, P4 rats, 30 min after ip paracetamol 15 mg/kg + olanzapine 0.15 mg/kg (PARA+OLZ, n=4), median (IQR))?
The concentration at 30 min was 5600 ng/mL.

What about the concentration at 30 min ([1]; both, plasma, intraperitoneal, Concentration in plasma, P4 rats, 30 min after ip paracetamol 15 mg/kg + valproate 30 mg/kg (PARA+VPA, n=4), median (IQR) or individual values) of the same compound?
The concentration at 30 min was 6700 ng/mL.

What about the concentration at 30 min ([1]; both, plasma, intraperitoneal, concentration in plasma, P4, monotherapy and combination therapy with any of the drugs investigated) of the same compound?
Its concentration at 30 min is roughly 5000 ng/mL.

What about the concentration at 30 min ([1]; female, CSF, intraperitoneal, 15 mg/kg, Concentration in CSF, non-pregnant adult rats, 30 min after ip paracetamol 15 mg/kg monotherapy (PARA, n=6), median (IQR)) of the same compound?
Its concentration at 30 min is 5300 ng/mL.

What about the concentration at 30 min ([1]; female, CSF, intraperitoneal, Concentration in CSF, non-pregnant adult rats, 30 min after ip paracetamol 15 mg/kg + cimetidine 11 mg/kg (PARA+CIM, n=3), median (IQR)) of the same compound?
Its concentration at 30 min is 2100 ng/mL.

And the concentration at 30 min ([1]; female, CSF, intraperitoneal, Concentration in CSF, non-pregnant adult rats, 30 min after ip paracetamol 15 mg/kg + digoxin 0.03 mg/kg (PARA+DIG, n=3), median (IQR))?
Its concentration at 30 min is 4200 ng/mL.

And the concentration at 30 min ([1]; female, CSF, intraperitoneal, Concentration in CSF, non-pregnant adult rats, 30 min after ip paracetamol 15 mg/kg + fluvoxamine 1.5 mg/kg (PARA+FLX, n=4), median (IQR))?
The concentration at 30 min was 4400 ng/mL.

And the concentration at 30 min ([1]; female, CSF, intraperitoneal, Concentration in CSF, non-pregnant adult rats, 30 min after ip paracetamol 15 mg/kg + olanzapine 0.15 mg/kg (PARA+OLZ, n=4), median (IQR))?
The concentration at 30 min was 4200 ng/mL.

And the concentration at 30 min ([1]; female, CSF, intraperitoneal, Concentration in CSF, non-pregnant adult rats, 30 min after ip paracetamol 15 mg/kg + valproate 30 mg/kg (PARA+VPA, n=3), median (IQR))?
Its concentration at 30 min is 4700 ng/mL.

What about the concentration at 30 min ([1]; female, brain, intraperitoneal, 15 mg/kg, Concentration in brain, non-pregnant adult rats, 30 min after ip paracetamol 15 mg/kg monotherapy (PARA, n=6), median (IQR)) of the same compound?
Its concentration at 30 min is 8100 ng/mL.

What about the concentration at 30 min ([1]; female, brain, intraperitoneal, Concentration in brain, non-pregnant adult rats, 30 min after ip paracetamol 15 mg/kg + cimetidine 11 mg/kg (PARA+CIM, n=3), median (IQR)) of the same compound?
Its concentration at 30 min is 2900 ng/mL.

What about the concentration at 30 min ([1]; female, brain, intraperitoneal, Concentration in brain, non-pregnant adult rats, 30 min after ip paracetamol 15 mg/kg + olanzapine 0.15 mg/kg (PARA+OLZ, n=4), median (IQR)) of the same compound?
The concentration at 30 min was 3900 ng/mL.

And the concentration at 30 min ([1]; female, brain, intraperitoneal, Concentration in brain, non-pregnant adult rats, 30 min after ip paracetamol 15 mg/kg + valproate 30 mg/kg (PARA+VPA, n=3), median (IQR))?
The concentration at 30 min was 7500 ng/mL.

And the concentration at 30 min ([1]; female, plasma, intraperitoneal, 15 mg/kg, Concentration in plasma, non-pregnant adult rats, 30 min after ip paracetamol 15 mg/kg monotherapy (PARA, n=6), median (IQR))?
The concentration at 30 min was 8400 ng/mL.

What about the concentration at 30 min ([1]; female, plasma, intraperitoneal, Concentration in plasma, non-pregnant adult rats, 30 min after ip paracetamol 15 mg/kg + digoxin 0.03 mg/kg (PARA+DIG, n=3), median (IQR)) of the same compound?
The concentration at 30 min was 4400 ng/mL.

What about the concentration at 30 min ([1]; female, plasma, intraperitoneal, Concentration in plasma, non-pregnant adult rats, 30 min after ip paracetamol 15 mg/kg + fluvoxamine 1.5 mg/kg (PARA+FLX, n=4), median (IQR)) of the same compound?
Its concentration at 30 min is 4600 ng/mL.

And the concentration at 30 min ([1]; female, plasma, intraperitoneal, Concentration in plasma, non-pregnant adult rats, 30 min after ip paracetamol 15 mg/kg + olanzapine 0.15 mg/kg (PARA+OLZ, n=4), median (IQR))?
Its concentration at 30 min is 6700 ng/mL.

What about the Concentration in plasma ([1]; non-pregnant adult rats, 30 min after ip paracetamol 15 mg/kg + cimetidine 11 mg/kg (PARA+CIM, n=3), median (IQR)) of the same compound?
The Concentration in plasma was 3.4 (1.0) µg/ml.

And the Concentration in brain ([1]; non-pregnant adult rats, 30 min after ip paracetamol 15 mg/kg + digoxin 0.03 mg/kg (PARA+DIG, n=3), median (IQR))?
The Concentration in brain was 4.3 (1.6) µg/ml.

And the Concentration in brain [1, 4]?
Its Concentration in brain is 7.1 (0.7) µg/ml.

What about the Concentration in plasma [1, 4] of the same compound?
The Concentration in plasma was 7.5 (1.0) µg/ml.

And the Concentration in plasma ([1]; non-pregnant adult rats, 30 min after ip paracetamol 15 mg/kg + valproate 30 mg/kg (PARA+VPA, n=3), median (IQR))?
The Concentration in plasma was 7.5 (1.3) µg/ml.

And the “fraction metabolized by glucuronidation via UGT enzymes” value ([2]; adult humans, liver)?
The value was 55–60%.

And the “fraction metabolized by sulfation via SULT enzymes” value ([2]; adult humans, liver)?
Its value is 20–30%.

And the “fraction excreted unchanged in urine” value ([2]; adult humans)?
The value was “around 4%”.

And the “fraction turned into NAPQI via cytochrome P450 enzymes” value ([2]; adult humans)?
Its value is “Up to 10%”.

What about the “proportion of paracetamol's metabolism by the glutathione metabolic pathway” value [2] of the same compound?
The value was less than 10%.

What about the half-life [3] of the same compound?
The half-life was “around 16 min”.
